The values below are quoted from earlier work in patent US20250042860A1, “Process for Chemical Synthesis of Ergothioneine and Methods of Use” (NANJING NUTRABUILDING BIO-TECH CO., LTD., priority 2022, published 2025).

The conditions of the data set: animals and humans, even at high doses.

Turning to ergothioneine, the “toxicity or adverse effects associated with ergothioneine administration” value was “no toxicity or adverse effects”.
